In one assay the target is T1, recombinant human NK3 receptor (Homo sapiens, UniProt P29371).
T1 construct: expressed in transfected cells; host or cells: HEK293 cells, transient expression; membranes
T1 sequence (P29371 1-465): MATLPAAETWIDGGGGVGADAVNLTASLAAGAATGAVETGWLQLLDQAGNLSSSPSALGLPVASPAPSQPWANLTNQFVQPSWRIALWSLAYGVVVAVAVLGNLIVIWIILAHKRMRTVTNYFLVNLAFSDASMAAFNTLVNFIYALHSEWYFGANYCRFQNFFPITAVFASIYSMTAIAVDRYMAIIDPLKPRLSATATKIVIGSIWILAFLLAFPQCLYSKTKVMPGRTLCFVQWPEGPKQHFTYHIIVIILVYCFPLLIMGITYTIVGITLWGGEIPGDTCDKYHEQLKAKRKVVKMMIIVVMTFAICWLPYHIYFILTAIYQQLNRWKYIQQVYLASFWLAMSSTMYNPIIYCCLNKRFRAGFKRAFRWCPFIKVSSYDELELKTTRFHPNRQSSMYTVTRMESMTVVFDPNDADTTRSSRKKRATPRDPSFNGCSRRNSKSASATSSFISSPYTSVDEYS
Briefly: [3H]SR142801 competition binding assay.
Details: not given
By Ki is commonly meant the dissociation constant of the complex between target and ligand, obtained from inhibition or displacement. Turning to `CN(C(=O)Oc1ccc(F)cc1)[C@@H]1CN(C(=O)C2CCN(c3ccc(F)cn3)CC2)C[C@H]1c1ccc(Cl)cc1` [Example 195, [(3S,4R)-4-(4-Chloro-phenyl)-1-(5′-fluoro-3,4,5,6-tetrahydro-2H-[1,2′]bipyridinyl-4-carbonyl)-pyrrolidin-3-yl]-methyl-carbamic acid 4-fluoro-phenyl ester], the Ki came out at 1.4 nM.
With `CN(C(=O)Oc1ccccc1)[C@H]1CN(C(=O)C2CCN(C(=O)C3(C)CC3)CC2)C[C@@H]1c1ccc(Cl)c(Cl)c1` (racemic) [Example 13, rac-{(3R,4S)-4-(3,4-Dichloro-phenyl)-1-[1-(1-methyl-cyclopropanecarbonyl)-piperidine-4-carbonyl]-pyrrolidin-3-yl}-methyl-carbamic acid phenyl ester], the inhibitory constant (Ki) came out at 2 nM.
The same measure, in the same setting: the result for `CN(C(=O)Oc1ccc(F)cc1)[C@@H]1CN(C(=O)C2CCN(C(=O)C3(C(F)(F)F)CC3)CC2)C[C@H]1c1ccc(Cl)cc1` [Example 255, {(3S,4R)-4-(4-Chloro-phenyl)-1-[1-(1-trifluoromethyl-cyclopropanecarbonyl)-piperidine-4-carbonyl]-pyrrolidin-3-yl}-methyl-carbamic acid 4-fluoro-phenyl ester] reads 2.5 nM; that for `CN(C(=O)Oc1ccc(F)cc1)[C@H]1CN(C(=O)[C@H]2CC[C@H](O)CC2)C[C@@H]1c1ccc(Cl)c(Cl)c1` (racemic) [Example 37, rac-[(3R,4S)-4-(3,4-Dichloro-phenyl)-1-(trans-4-hydroxy-cyclohexanecarbonyl)-pyrrolidin-3-yl]-methyl-carbamic acid 4-fluoro-phenyl ester], 0.7 nM; that for `CN(C(=O)Oc1ccc(F)cc1)[C@@H]1CN(C(=O)C2CCN(C(=O)C3(C#N)CC3)CC2)C[C@H]1c1ccc(Cl)c(Cl)c1` [Example 272, [(3S,4R)-1-[1-(1-Cyano-cyclopropanecarbonyl)-piperidine-4-carbonyl]-4-(3,4-dichloro-phenyl)-pyrrolidin-3-yl]-methyl-carbamic acid 4-fluoro-phenyl ester], 0.8 nM.
Consider `CN(C(=O)OCCCC(F)(F)F)[C@@H]1CN(C(=O)C2CCN(c3ccc(C(=O)NC(C)(C)C)cn3)CC2)C[C@H]1c1ccc(Cl)cc1` (racemic) [Example 124, rac-[(3S,4R)-1-(5′-tert-Butylcarbamoyl-3,4,5,6-tetrahydro-2H-[1,2′]bipyridinyl-4-carbonyl)-4-(4-chloro-phenyl)-pyrrolidin-3-yl]-methyl-carbamic acid 4,4,4-trifluoro-butyl ester], for which the inhibition constant (Ki) turned out to be 40.2 nM.
On to `Cc1ccc([C@H]2CN(C(=O)C3CCN(C(=O)C4(C)CC4)CC3)C[C@@H]2N(C)C(=O)Oc2ccc(F)cc2)cc1Cl` (racemic) [Example 70, rac-{(3R,4S)-4-(3-Chloro-4-methyl-phenyl)-1-[1-(1-methyl-cyclopropanecarbonyl)-piperidine-4-carbonyl]-pyrrolidin-3-yl}-methyl-carbamic acid 4-fluoro-phenyl ester], for which the Ki worked out at 1.3 nM.
As to `Cc1ccc(OC(=O)N(C)[C@@H]2CN(C(=O)C3CCN(c4ccc(C#N)cn4)CC3)C[C@H]2c2ccc(Cl)cc2)cc1` [Example 202, [(3S,4R)-4-(4-Chloro-phenyl)-1-(5′-cyano-3,4,5,6-tetrahydro-2H-[1,2′]bipyridinyl-4-carbonyl)-pyrrolidin-3-yl]-methyl-carbamic acid p-tolyl ester], the Ki came out at 4.3 nM.
With `CN(C(=O)Oc1cccc(C#N)c1)[C@@H]1CN(C(=O)C2CCN(c3ccc(C#N)cn3)CC2)C[C@H]1c1ccc(Cl)cc1` [Example 225, [(3S,4R)-4-(4-Chloro-phenyl)-1-(5′-cyano-3,4,5,6-tetrahydro-2H-[1,2′]bipyridinyl-4-carbonyl)-pyrrolidin-3-yl]-methyl-carbamic acid 3-cyano-phenyl ester], the inhibition constant Ki came to 11.2 nM.
The same measure, in the same setting: next, `CN(C(=O)Oc1ccc(F)cc1)[C@@H]1CN(C(=O)C2CCN(c3cccc(C#N)n3)CC2)C[C@H]1c1ccc(Cl)cc1` [Example 189, [(3S,4R)-4-(4-Chloro-phenyl)-1-(6′-cyano-3,4,5,6-tetrahydro-2H-[1,2′]bipyridinyl-4-carbonyl)-pyrrolidin-3-yl]-methyl-carbamic acid 4-fluoro-phenyl ester]: 3.5 nM; `CN(C(=O)Oc1ccc(F)cc1)[C@H]1CN(C(=O)C2CCN(C(=O)C3(C)CC3)CC2)C[C@@H]1c1ccc(Cl)cc1` (racemic) [Example 26, rac-{(3R,4S)-4-(4-Chloro-phenyl)-1-[1-(1-methyl-cyclopropanecarbonyl)-piperidine-4-carbonyl]-pyrrolidin-3-yl}-methyl-carbamic acid 4-fluoro-phenyl ester]: 2.9 nM; `CCC(=O)N1CCC(C(=O)N2C[C@H](c3ccc(Cl)c(Cl)c3)[C@@H](N(C)C(=O)Oc3ccc(F)cc3)C2)CC1` (racemic) [Example 73, rac-[(3R,4S)-4-(3,4-Dichloro-phenyl)-1-(1-propionyl-piperidine-4-carbonyl)-pyrrolidin-3-yl]-methyl-carbamic acid 4-fluoro-phenyl ester]: 0.8 nM.
On the same count and under the same terms, next, `COc1ccc(N2CCC(C(=O)N3C[C@@H](N(C)C(=O)Oc4ccc(F)cc4)[C@H](c4ccc(Cl)cc4)C3)CC2)nn1` [Example 197, {(3S,4R)-4-(4-Chloro-phenyl)-1-[1-(6-methoxy-pyridazin-3-yl)-piperidine-4-carbonyl]-pyrrolidin-3-yl}-methyl-carbamic acid 4-fluoro-phenyl ester]: 2.6 nM; `CN(C(=O)Oc1ccc(F)cc1)[C@H]1CN(C(=O)C2CCN(C(=O)C3CC3)CC2)C[C@@H]1c1ccc(Cl)c(Cl)c1` (racemic) [Example 74, rac-[(3R,4S)-1-(1-Cyclopropanecarbonyl-piperidine-4-carbonyl)-4-(3,4-dichloro-phenyl)-pyrrolidin-3-yl]-methyl-carbamic acid 4-fluoro-phenyl ester]: 0.8 nM.
Same read-out and setting: the result for `CN(C(=O)Oc1ccc(F)cc1)[C@@H]1CN(C(=O)C2CCN(C(=O)CC#N)CC2)C[C@H]1c1ccc(Cl)cc1` [Example 253, {(3S,4R)-4-(4-Chloro-phenyl)-1-[1-(2-cyano-acetyl)-piperidine-4-carbonyl]-pyrrolidin-3-yl}-methyl-carbamic acid 4-fluoro-phenyl ester] reads 1.8 nM; that for `CN(C(=O)Oc1ccc(F)cc1)[C@@H]1CN(C(=O)C2CCN(c3ncccn3)CC2)C[C@H]1c1ccc(Cl)cc1` [Example 183, [(3S,4R)-4-(4-Chloro-phenyl)-1-(1-pyrimidin-2-yl-piperidine-4-carbonyl)-pyrrolidin-3-yl]-methyl-carbamic acid 4-fluoro-phenyl ester], 16 nM.
As to `CN(C(=O)OCCCC(F)(F)F)[C@@H]1CN(C(=O)C2CCN(c3ccc(C#N)cn3)CC2)C[C@H]1c1ccc(Cl)cc1` [Example 127, [(3S,4R)-4-(4-Chloro-phenyl)-1-(5′-cyano-3,4,5,6-tetrahydro-2H-[1,2′]bipyridinyl-4-carbonyl)-pyrrolidin-3-yl]-methyl-carbamic acid 4,4,4-trifluoro-butyl ester], the Ki was 4 nM.

Still in this assay, the particulars now being: hNK-3 receptor affinity; membranes from HEK293 cells transiently expressing recombinant human NK3 receptor; [3H]SR142801; Cheng-Prussoff; read-out: Data Ki.
As for `CN(C(=O)OCCCF)[C@@H]1CN(C(=O)C2CCN(c3ccc(C#N)cn3)CC2)C[C@H]1c1ccc(Cl)cc1` [Example 214, [(3S,4R)-4-(4-Chloro-phenyl)-1-(5′-cyano-3,4,5,6-tetrahydro-2H-[1,2′]bipyridinyl-4-carbonyl)-pyrrolidin-3-yl]-methyl-carbamic acid 3-fluoro-propyl ester], the Ki is 94.2 nM.
Still for that read-out and setting: the result for `COCCCOC(=O)N(C)[C@@H]1CN(C(=O)C2CCN(c3ccc(C#N)cn3)CC2)C[C@H]1c1ccc(Cl)cc1` [Example 216, [(3S,4R)-4-(4-Chloro-phenyl)-1-(5′-cyano-3,4,5,6-tetrahydro-2H-[1,2′]bipyridinyl-4-carbonyl)-pyrrolidin-3-yl]-methyl-carbamic acid 3-methoxy-propyl ester] reads 53.6 nM.
On to `CN(C(=O)OC1CCC1)[C@@H]1CN(C(=O)C2CCN(c3ccc(C#N)cn3)CC2)C[C@H]1c1ccc(Cl)cc1` [Example 173, [(3S,4R)-4-(4-Chloro-phenyl)-1-(5′-cyano-3,4,5,6-tetrahydro-2H-[1,2′]bipyridinyl-4-carbonyl)-pyrrolidin-3-yl]-methyl-carbamic acid cyclobutyl ester], for which the Ki worked out at 47 nM.
On to `CN(C(=O)OCC1CC1)[C@@H]1CN(C(=O)C2CCN(c3ccc(C#N)cn3)CC2)C[C@H]1c1ccc(Cl)cc1` [Example 215, [(3S,4R)-4-(4-Chloro-phenyl)-1-(5′-cyano-3,4,5,6-tetrahydro-2H-[1,2′]bipyridinyl-4-carbonyl)-pyrrolidin-3-yl]-methyl-carbamic acid cyclopropylmethyl ester], for which the Ki came to 8.4 nM.

Staying with this assay, now noted: read-out: Data Ki.
With “rac-{(3R,4S)-4-(3,4-Dichloro-phenyl)-1-[1-(1-methyl-cyclopropanecarbonyl)-piperidine-4-carbonyl]-pyrrolidin-3-yl}-methyl-carbamic acid (S)-1-(tetrahydro-furan-2-yl)methyl ester and rac-{(3R,4S)-4-(3,4-Dichloro-phenyl)-1-[1-(1-methyl-cyclopropanecarbonyl)-piperidine-4-carbonyl]-pyrrolidin-3-yl}-methyl-carbamic acid (R)-1-(tetrahydro-furan-2-yl)methyl ester [Example 84]”, the Ki came to 18.3 nM.
